Test results published in ChEMBL document CHEMBL6078729, “Synthetic glycol-split heparin tri- and tetrasaccharides provide new insights into structural peculiarities for antiheparanase activity” (Bioorg Med Chem, 2025).

Target: T1, Heparanase (Homo sapiens, UniProt Q9Y251)
T1 sequence (Q9Y251 whole entry): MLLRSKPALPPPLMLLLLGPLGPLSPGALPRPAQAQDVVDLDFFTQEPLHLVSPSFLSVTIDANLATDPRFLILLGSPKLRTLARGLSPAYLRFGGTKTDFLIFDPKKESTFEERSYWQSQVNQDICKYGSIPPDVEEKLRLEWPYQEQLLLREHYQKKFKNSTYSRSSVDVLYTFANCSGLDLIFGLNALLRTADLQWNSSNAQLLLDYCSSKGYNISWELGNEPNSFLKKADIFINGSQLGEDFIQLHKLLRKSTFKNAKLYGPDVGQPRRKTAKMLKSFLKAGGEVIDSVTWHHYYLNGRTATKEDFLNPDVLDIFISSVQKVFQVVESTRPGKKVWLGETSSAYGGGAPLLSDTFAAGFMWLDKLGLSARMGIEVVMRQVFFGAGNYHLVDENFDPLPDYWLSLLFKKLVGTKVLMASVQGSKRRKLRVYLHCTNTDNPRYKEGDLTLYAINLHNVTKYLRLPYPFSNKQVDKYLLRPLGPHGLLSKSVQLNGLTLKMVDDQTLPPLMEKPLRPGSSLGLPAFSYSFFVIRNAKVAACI
Test: Inhibition of recombinant human heparanase assessed as fondaparinux cleavage by measuring disaccharide by colorimetric analysis

Structure (SMILES)	IC50 [µM]
CO[C@H]1O[C@H](COS(=O)(=O)O)[C@@H](O[C@@H](CO)O[C@H](C(=O)O)[C@@H](CO)O[C@H]2O[C@H](COS(=O)(=O)O)[C@@H](OC)[C@H](O)[C@H]2NS(=O)(=O)O)[C@H](O)[C@H]1NS(=O)(=O)O	76.8
CO[C@H]1O[C@H](COS(=O)(=O)O)[C@@H](O[C@H](O[C@@H](C(=O)O)[C@@H](O[C@H]2O[C@H](COS(=O)(=O)O)[C@@H](O[C@H](O[C@@H](C(=O)O)[C@@H](OC)C(=O)O)C(=O)O)[C@H](O)[C@H]2NS(=O)(=O)O)C(=O)O)C(=O)O)[C@H](O)[C@H]1NS(=O)(=O)O	7.57
CO[C@H]1O[C@H](COS(=O)(=O)O)[C@@H](O[C@@H](CO)O[C@@H](C(=O)O)[C@H](CO)O[C@H]2O[C@H](COS(=O)(=O)O)[C@@H](O[C@@H](CO)O[C@@H](C(=O)O)[C@H](CO)OC)[C@H](O)[C@H]2NS(=O)(=O)O)[C@H](O)[C@H]1NS(=O)(=O)O	63.7
CO[C@H]1O[C@H](COS(=O)(=O)O)[C@@H](O[C@H](O[C@@H](C(=O)O)[C@H](O[C@H]2O[C@H](COS(=O)(=O)O)[C@@H](OC)[C@H](O)[C@H]2NS(=O)(=O)O)C(=O)O)C(=O)O)[C@H](O)[C@H]1NS(=O)(=O)O	> 95.4
CO[C@H]1O[C@H](COS(=O)(=O)O)[C@@H](O[C@@H]2O[C@H](C(=O)O)[C@@H](O[C@H]3O[C@H](COS(=O)(=O)O)[C@@H](OC)[C@H](O)[C@H]3NS(=O)(=O)O)[C@H](O)[C@H]2O)[C@H](O)[C@H]1NS(=O)(=O)O	> 103
CO[C@H]1O[C@H](COS(=O)(=O)O)[C@@H](O[C@@H](CO)O[C@@H](C(=O)O)[C@@H](CO)O[C@H]2O[C@H](COS(=O)(=O)O)[C@@H](OC)[C@H](O)[C@H]2NS(=O)(=O)O)[C@H](O)[C@H]1NS(=O)(=O)O	37.9
CO[C@H]1O[C@H](COS(=O)(=O)O)[C@@H](O[C@@H]2O[C@@H](C(=O)O)[C@@H](O[C@H]3O[C@H](COS(=O)(=O)O)[C@@H](O[C@@H]4O[C@@H](C(=O)O)[C@@H](OC)[C@H](O)[C@H]4O)[C@H](O)[C@H]3NS(=O)(=O)O)[C@H](O)[C@H]2O)[C@H](O)[C@H]1NS(=O)(=O)O	> 85.3
CO[C@H]1O[C@H](COS(=O)(=O)O)[C@@H](O[C@H](O[C@H](C(=O)O)[C@H](O[C@H]2O[C@H](COS(=O)(=O)O)[C@@H](OC)[C@H](O)[C@H]2NS(=O)(=O)O)C(=O)O)C(=O)O)[C@H](O)[C@H]1NS(=O)(=O)O	71.5
CO[C@H]1O[C@H](COS(=O)(=O)O)[C@@H](O[C@@H]2O[C@@H](C(=O)O)[C@@H](O[C@H]3O[C@H](COS(=O)(=O)O)[C@@H](OC)[C@H](O)[C@H]3NS(=O)(=O)O)[C@H](O)[C@H]2O)[C@H](O)[C@H]1NS(=O)(=O)O	> 103
